Target: T1, ERα (Homo sapiens, UniProt P03372)
T1 sequence (P03372 1-595): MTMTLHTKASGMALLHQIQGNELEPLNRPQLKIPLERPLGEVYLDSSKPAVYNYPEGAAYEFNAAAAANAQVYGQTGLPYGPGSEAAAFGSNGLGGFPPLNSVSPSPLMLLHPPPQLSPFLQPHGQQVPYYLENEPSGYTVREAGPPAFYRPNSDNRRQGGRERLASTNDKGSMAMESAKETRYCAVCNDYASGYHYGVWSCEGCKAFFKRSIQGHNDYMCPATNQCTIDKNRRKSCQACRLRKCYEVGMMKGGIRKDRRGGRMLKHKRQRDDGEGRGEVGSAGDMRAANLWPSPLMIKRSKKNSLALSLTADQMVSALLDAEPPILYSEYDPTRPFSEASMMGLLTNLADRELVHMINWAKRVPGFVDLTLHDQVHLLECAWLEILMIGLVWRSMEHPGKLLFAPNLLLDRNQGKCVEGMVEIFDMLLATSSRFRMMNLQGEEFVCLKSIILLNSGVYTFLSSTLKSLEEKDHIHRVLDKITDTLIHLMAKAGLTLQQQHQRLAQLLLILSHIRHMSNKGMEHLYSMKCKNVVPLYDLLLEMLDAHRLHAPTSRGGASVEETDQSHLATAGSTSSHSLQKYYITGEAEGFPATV
Assay: ERE luciferase reporter gene assay in T47D-KBluc cells (target engagement)
Assay type: cell-based
Parameters: T47D human breast cancer cells stably transfected with estrogen responsive element/promoter/luciferase reporter gene; host or cells: T47D-KBluc cells
Details: 10% FBS, 24 hours, Table 1 cereblon centric PROTACs, read-out: ER-α Luciferase IC50
Experimental: Chimeric molecules were assessed for target engagement in T47D cells using the commercial kit of ERE luciferase reporter gene assay. In the assay, 10% FBS was included and estrogen level was measured to be 10 pM.
ERE Luciferase Assay for Compounds in Table 1-3.
T47D-KBluc cells (ATCC #CRL_2865, T47D human breast cancer cells stably transfected with estrogen responsive element/promoter/luciferase reporter gene) were seeded into 96-well white opaque plates in RPMI growth medium supplemented with 10% fetal bovine serum and allowed to adhere overnight in a 37° C. humidified incubator. The following day, cells were treated with PROTACs in a 12-point concentration curve (top final concentration of 300 nM with subsequent concentrations being 3-fold less with 2 pM being the lowest concentration in the assay). Each PROTAC was tested independently in two experiments on 96-well plates. After 24 hours, media was removed and lysis buffer was added to the wells. Following lysis, Bright-Glo™ Luciferase Assay Substrate (Prornega, Madison Wis.) was added and the luciferase activity was measured using a Cytation 3 plate reader (TioTek™, Winooski, Vt.). Each compound was assayed in duplicates and the activity was calculated as IC50 using GraphPad Prism software (San Diego, Calif.).

Row | SMILES | IC50
1 | O=C1CCC(N2Cc3c(NCCN4CCN(CCOc5ccc(Oc6c(-c7ccccc7)sc7cc(O)ccc67)cc5)CC4)cccc3C2=O)C(=O)N1 (stereo not drawn) [Compound 2] | 0.36 nM
2 | O=C1CCC(N2Cc3cc(OCCCOCCOc4ccc(Oc5c(-c6ccc(Br)cc6)sc6cc(O)ccc56)cc4)ccc3C2=O)C(=O)N1 (stereo not drawn) [Compound 40] | 3.9 nM
3 | O=C1CCC(N2Cc3cc(OCCN4CCN(CCOc5ccc(Oc6c(-c7ccc(Br)cc7)sc7cc(O)ccc67)cc5)CC4)ccc3C2=O)C(=O)N1 (stereo not drawn) [Compound 30] | 1.3 nM
4 | O=C1CCC(N2Cc3c(NCCN4CCN(CCOc5ccc(Oc6c(-c7ccc(Br)cc7)sc7cc(O)ccc67)cc5)CC4)cccc3C2=O)C(=O)N1 (stereo not drawn) [Compound 5] | 0.9 nM
5 | O=C(CC1CCN(CCOc2ccc(Oc3c(-c4ccc(Br)cc4)sc4cc(O)ccc34)cc2)CC1)NCc1ccc2c(c1)CN(C1CCC(=O)NC1=O)C2=O (stereo not drawn) [Compound 63] | 0.82 nM
6 | O=C1CCC(N2Cc3cc(CCCOC4CCN(CCOc5ccc(Oc6c(-c7ccc(Br)cc7)sc7cc(O)ccc67)cc5)CC4)ccc3C2=O)C(=O)N1 (stereo not drawn) [Compound 73] | 1.3 nM
7 | O=C1CCC(N2Cc3cc(OCCCOCCCOCCCCOc4ccc(Oc5c(-c6ccc(Br)cc6)sc6cc(O)ccc56)cc4)ccc3C2=O)C(=O)N1 (stereo not drawn) [Compound 48] | 8.3 nM
8 | O=C1CCC(N2C(=O)c3cccc(NCCN4CCN(CCOc5ccc(Oc6c(-c7ccc(O)cc7)sc7cc(O)ccc67)cc5)CC4)c3C2=O)C(=O)N1 (stereo not drawn) [Compound 3] | 0.14 nM
9 | O=C1CCC(N2Cc3cc(OCCCOCCOCCOc4ccc(Oc5c(-c6ccc(Br)cc6)sc6cc(O)ccc56)cc4)ccc3C2=O)C(=O)N1 (stereo not drawn) [Compound 43] | 6.1 nM
10 | O=C(CN1CCN(CCOc2ccc(Oc3c(-c4ccc(Br)cc4)sc4cc(O)ccc34)cc2)CC1)NCc1ccc2c(c1)CN(C1CCC(=O)NC1=O)C2=O (stereo not drawn) [Compound 1] | 12.7 nM
11 | O=C1CCC(N2C(=O)c3cccc(NCCN4CCN(CCOc5ccc(Oc6c(-c7ccc(Br)cc7)sc7cc(O)ccc67)cc5)CC4)c3C2=O)C(=O)N1 (stereo not drawn) [Compound 6] | 1.3 nM
12 | O=C1CCC(N2Cc3cc(N4CCN(CCCCCCOc5ccc(Oc6c(-c7ccc(Br)cc7)sc7cc(O)ccc67)cc5)CC4)ccc3C2=O)C(=O)N1 (stereo not drawn) [Compound 54] | 12.1 nM
13 | O=C1CC[C@H](N2Cc3cc(OCCN4CC5(CN(CCOc6ccc(Oc7c(-c8ccc(Br)cc8)sc8cc(O)ccc78)cc6)C5)C4)ccc3C2=O)C(=O)N1 [Compound 41] | 2.4 nM
14 | O=C1CCC(N2Cc3c(OCCOCCOCCOCCOCCOc4ccc(Oc5c(-c6ccc(Br)cc6)sc6cc(O)ccc56)cc4)cccc3C2=O)C(=O)N1 (stereo not drawn) [Compound 25] | 8.6 nM
15 | O=C1CCC(N2C(=O)c3ccc(OCCCOCCOc4ccc(Oc5c(-c6ccc(Br)cc6)sc6cc(O)ccc56)cc4)cc3C2=O)C(=O)N1 (stereo not drawn) [Compound 76] | 17 nM
16 | O=C1CCC(N2Cc3cc(CCCCC(=O)N4CCN(CCOc5ccc(Oc6c(-c7ccc(Br)cc7)sc7cc(O)ccc67)cc5)CC4)ccc3C2=O)C(=O)N1 (stereo not drawn) [Compound 47] | 0.86 nM
17 | O=C1CCC(N2C(=O)c3ccc(N4CCN(CCCCCCCOc5ccc(Oc6c(-c7ccc(Br)cc7)sc7cc(O)ccc67)cc5)CC4)cc3C2=O)C(=O)N1 (stereo not drawn) [Compound 69] | 103 nM
18 | O=C1CCC(N2C(=O)c3cccc(NCCOCCOCCOc4ccc(Oc5c(-c6ccc(Br)cc6)sc6cc(O)ccc56)cc4)c3C2=O)C(=O)N1 (stereo not drawn) [Compound 26] | 9.7 nM
19 | O=C1CCC(N2Cc3cc(CCC(=O)N4CCN(CCOc5ccc(Oc6c(-c7ccc(Br)cc7)sc7cc(O)ccc67)cc5)CC4)ccc3C2=O)C(=O)N1 (stereo not drawn) [Compound 46] | 1.9 nM

Continued, values first:

Row | IC50 | SMILES
20 | 6 nM | O=C1CCC(N2Cc3cc(NCCCOCCOc4ccc(Oc5c(-c6ccc(Br)cc6)sc6cc(O)ccc56)cc4)ccc3C2=O)C(=O)N1 (stereo not drawn) [Compound 85]
21 | 44.9 nM | O=C1CCC(N2C(=O)c3ccc(NCCCOCCOCCOc4ccc(Oc5c(-c6ccc(Br)cc6)sc6cc(O)ccc56)cc4)cc3C2=O)C(=O)N1 (stereo not drawn) [Compound 83]
22 | 21.5 nM | O=C1CCC(N2C(=O)c3ccc(OCCCOCCCOCCOc4ccc(Oc5c(-c6ccc(Br)cc6)sc6cc(O)ccc56)cc4)cc3C2=O)C(=O)N1 (stereo not drawn) [Compound 87]

Same assay, conditions: 10% FBS, 24 hours, Table 2 VHL centric PROTACs, read-out: IC50

Row | IC50 | SMILES
23 | 2.2 nM | Cc1ncsc1-c1ccc(CNC(=O)[C@@H]2C[C@@H](O)CN2C(=O)[C@@H](NC(=O)CCCC(=O)N2CCN(CCOc3ccc(Oc4c(-c5ccc(F)cc5)sc5cc(O)ccc45)cc3)[C@@H](C)C2)C(C)(C)C)cc1 [Compound 124]
24 | 1.5 nM | CC(C)(C)[C@H](NC(=O)COCCOCCOCCOc1ccc(Oc2c(-c3ccc(F)cc3)sc3cc(O)ccc23)cc1)C(=O)N1C[C@H](O)C[C@H]1C(=O)NCc1ccc(C#N)cc1 [Compound 136]
25 | > 100 nM | C[C@H](NC(=O)[C@@H]1C[C@@H](O)CN1C(=O)[C@@H](NC(=O)COCCOCCN1CCC(c2ccc(Oc3c(-c4ccc(F)cc4)sc4cc(O)ccc34)cc2)CC1)C(C)(C)C)c1ccc(Cl)cc1 [Compound 148]
26 | > 100 nM | COc1ccc2c(Oc3ccc(OCCN4CCN(CCOCC(=O)N[C@H](C(=O)N5CC(=O)C[C@H]5C(=O)NCc5ccc(-c6scnc6C)cc5)C(C)(C)C)CC4)cc3)c(-c3ccc(Br)cc3)sc2c1 [Compound 159]
27 | 87 nM | Cc1ncsc1-c1ccc(CNC(=O)[C@@H]2C[C@@H](O)CN2C(=O)[C@@H](NC(=O)CCCOC2CCN(CCOc3ccc(Oc4c(-c5ccc(F)cc5)sc5cc(O)ccc45)cc3)CC2)C(C)(C)C)cc1 [Compound 137]
28 | > 100 nM | COc1ccc2c(Oc3ccc(OCCN4CCN(CCOCC(=O)N[C@H](C(=O)N5C[C@H](O)C[C@H]5C(=O)NCc5ccc(-c6scnc6C)cc5)C(C)(C)C)CC4)cc3)c(-c3ccc(Br)cc3)sc2c1 [Compound 154]
29 | 3 nM | Cc1ncsc1-c1ccc(CNC(=O)[C@@H]2C[C@@H](O)CN2C(=O)[C@@H](NC(=O)COCCO[C@@H]2CCN(CCOc3ccc(Oc4c(-c5ccc(F)cc5)sc5cc(O)ccc45)cc3)C2)C(C)(C)C)cc1 [Compound 116]

Same assay, conditions: 10% FBS, 24 hours, Table 3 cereblon centric PROTACs, read-out: ER-α Luciferase IC50

Row | IC50 | SMILES
30 | 1.2 nM | O=C1CCC(N2Cc3cc(N4CC(N5CCC(Oc6ccc(Oc7c(-c8ccc(Br)cc8)sc8cc(O)ccc78)cc6)CC5)C4)ccc3C2=O)C(=O)N1 (stereo not drawn) [Compound 240]
31 | > 300 nM | O=C1CCC(N2C(=O)c3ccc(N4CCN(CCC5CN(CCOc6ccc(Oc7c(-c8ccc(Br)cc8)sc8cc(O)ccc78)cc6)C5)CC4)cc3C2=O)C(=O)N1 (stereo not drawn) [Compound 186]
32 | 8.7 nM | O=C1CCC(N2Cc3cc(NCCCOCCOCCOc4ccc(Oc5c(-c6ccc(Br)cc6)sc6cc(O)ccc56)cc4)ccc3C2=O)C(=O)N1 (stereo not drawn) [Compound 171]
33 | 2.9 nM | O=C1CCC(N2Cc3c(ccc(N4CCN(C5CCN(CCOc6ccc(Oc7c(-c8ccc(Br)cc8)sc8cc(O)ccc78)cc6)CC5)CC4)c3F)C2=O)C(=O)N1 (stereo not drawn) [Compound 195]
34 | 31.6 nM | O=C1CCC(N2C(=O)c3ccc(N4CCN(CCCCc5ccc(Oc6c(-c7ccc(Br)cc7)sc7cc(O)ccc67)cc5)CC4)cc3C2=O)C(=O)N1 (stereo not drawn) [Compound 211]
35 | 8.6 nM | O=C1CCC(N2Cc3cc(C4CCN(C5CCN(CCOc6ccc(Oc7c(-c8ccc(Br)cc8)sc8cc(O)ccc78)cc6)CC5)CC4)ccc3C2=O)C(=O)N1 (stereo not drawn) [Compound 196]
36 | 2.1 nM | O=C1CCC(N2Cc3cc(N4CCC(N5CC(Oc6ccc(Oc7c(-c8ccc(Br)cc8)sc8cc(O)ccc78)cc6)C5)CC4)ccc3C2=O)C(=O)N1 (stereo not drawn) [Compound 233]
37 | 16.4 nM | O=C1CCC(N2Cc3cc(N4CCN(CC5CCN(CCOc6ccc(Oc7c(-c8ccc(C(F)(F)F)cc8)sc8cc(O)ccc78)cc6)CC5)CC4)c(F)cc3C2=O)C(=O)N1 (stereo not drawn) [Compound 204]
38 | 28.7 nM | O=C1CCC(N2C(=O)c3ccc(NCCCOCCCOCCCCOc4ccc(Oc5c(-c6ccc(Br)cc6)sc6cc(O)ccc56)cc4)cc3C2=O)C(=O)N1 (stereo not drawn) [Compound 176]
39 | 8.9 nM | O=C1CCC(N2Cc3cc(N4CCN(CCCOc5ccc(Oc6c(-c7ccc(Br)cc7)sc7cc(O)ccc67)cc5)CC4)cc(F)c3C2=O)C(=O)N1 (stereo not drawn) [Compound 222]
40 | 10.2 nM | O=C1CCC(N2Cc3cc(N4CCN(C5CC6(C5)CN(CCOc5ccc(Oc7c(-c8ccc(C(F)(F)F)cc8)sc8cc(O)ccc78)cc5)C6)CC4)ccc3C2=O)C(=O)N1 (stereo not drawn) [Compound 198]
41 | 15.7 nM | O=C1CCC(N2C(=O)c3ccc(NCCCOCCCOCCOc4ccc(Oc5c(-c6ccc(Br)cc6)sc6cc(O)ccc56)cc4)cc3C2=O)C(=O)N1 (stereo not drawn) [Compound 172]
42 | 8.4 nM | O=C1CCC(N2Cc3c(ccc(N4CCN(CCCOc5ccc(Oc6c(-c7ccc(Br)cc7)sc7cc(O)ccc67)cc5)CC4)c3F)C2=O)C(=O)N1 (stereo not drawn) [Compound 208]
